In publication PMC12186298, “Phase 1 clinical trial of eneboparatide, a novel PTH receptor 1 agonist” (Endocrine Connections, 2025):
Peptide text beside a SMILES is read from it.

Tested on: healthy subjects
Assay: Antidrug antibodies (ADA) in plasma, Part B
Type: in vivo, human
Details: following 14 days of administration
Procedure: Safety and tolerability assessments consisted of adverse events (AEs), clinical laboratory (clinical chemistry, haematology, coagulation, and urinalysis), vital signs (blood pressure, pulse rate, respiratory rate, and temperature), 12-lead ECG (Part B), 24 h continuous cardiac monitoring (telemetry; Part A), body weight, physical examination, injection site reaction, and measurement of antidrug antibodies (ADA) in plasma (Part B).

## CC[C@H](C)[C@H](NC(=O)[C@H](CCC(=O)O)NC(=O)[C@H](C)NC(=O)[C@@H](NC(=O)[C@H](Cc1c[nH]cn1)NC(=O)[C@@H](NC(=O)[C@H](CCC(=O)O)NC(=O)[C@H](C)NC(=O)[C@@H](NC(=O)[C@H](CC(C)C)NC(=O)[C@H](CCCCN)NC(=O)[C@H](Cc1c[nH]cn1)NC(=O)[C@H](CC(C)C)NC(=O)[C@H](Cc1ccccc1)NC(=O)[C@H](C)NC(=O)[C@H](CCCNC(=N)N)NC(=O)[C@H](CCCNC(=N)N)NC(=O)[C@H](CCCNC(=N)N)NC(=O)[C@H](C)NC(=O)[C@H](CC(=O)O)NC(=O)[C@H](CCC(N)=O)NC(=O)[C@@H](NC(=O)[C@H](Cc1c[nH]c2ccccc12)NC(=O)[C@H](CCCCN)NC(=O)[C@H](C)NC(=O)[C@H](CCCNC(=N)N)NC(=O)[C@H](CCC(N)=O)NC(=O)[C@H](Cc1c[nH]cn1)NC(=O)[C@H](CCSC)NC(=O)[C@H](CC(C)C)NC(=O)[C@H](CCC(N)=O)NC(=O)[C@@H](NC(=O)[C@H](CCC(=O)O)NC(=O)[C@H](C)NC(=O)[C@@H](NC(=O)[C@H](C)N)C(C)C)[C@@H](C)CC)[C@@H](C)CC)[C@@H](C)CC)[C@@H](C)CC)[C@@H](C)O)C(=O)O [eneboparatide] (H-AVAEIQLMHQRAKWIQDARRRAFLHKLIAEIHTAEI-OH; N-terminus and C-terminus assumed)
  anti-eneboparatide antibodies: no anti-eneboparatide antibodies detected
